Measured values as given in ChEMBL document CHEMBL1201862, “PubChem BioAssay data set” (2004).
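Each compound was tested at five concentrations against cells in 96-well plates for 48 hours. Abbreviation: GI50, concentration required for 50% inhibition of growth.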 Calls of active or inactive are those of the source. Cut-off read from the data, not from the text of the source: active = GI50 up to about 1.1 µM and inactive = higher.

Experiments:
Experiment in all cases: NCI anticancer screen, dose series, 48 h
[1] = tested on: CCRF-CEM
[2] = tested on: COLO 205
[3] = tested on: HOP-62
[4] = tested on: HT-29
[5] = tested on: KM12
[6] = tested on: NCI-H23
[7] = tested on: NCI-H460
[8] = tested on: SF-268
[9] = tested on: SF-295
[10] = tested on: SK-MEL-28
[11] = tested on: SK-MEL-2
[12] = tested on: SR
[13] = tested on: SW-620
[14] = tested on: TK-10
[15] = tested on: U-251
[16] = tested on: UACC-257
[17] = tested on: UO-31

Compound | GI50 [1] | GI50 [2] | GI50 [3] | GI50 [4] | GI50 [5] | GI50 [6] | GI50 [7] | GI50 [8] | GI50 [9] | GI50 [10] | GI50 [11] | GI50 [12] | GI50 [13] | GI50 [14] | GI50 [15] | GI50 [16] | GI50 [17]
OC1[C@H]([C@H]2CCCC[C@@H]2O)CCC[C@@H]1[C@@H]1CCCC[C@H]1O (some centres undefined) | > 100 µM (inactive) | > 100 µM (inactive) | > 100 µM (inactive) | > 100 µM (inactive) | > 100 µM (inactive) | > 100 µM (inactive) | > 100 µM (inactive) | > 100 µM (inactive) | > 100 µM (inactive) | > 100 µM (inactive) | > 100 µM (inactive) | > 100 µM (inactive) | > 100 µM (inactive) | > 100 µM (inactive) | > 100 µM (inactive) | > 100 µM (inactive) | > 100 µM (inactive)
COc1ccc(NC(=O)C2C(=O)N(c3ccc(OC)cc3)C(=O)/C2=N/O)cc1 (centres undefined) | > 100 µM (inactive) | > 100 µM (inactive) | 23.5 µM (inactive) | 38.6 µM (inactive) | 23 µM (inactive) | 43.4 µM (inactive) | 21.9 µM (inactive) | 24.8 µM (inactive) | 26.4 µM (inactive) | 37.8 µM (inactive) | 32.2 µM (inactive) | > 100 µM (inactive) | > 61.9 µM (inactive) | 23.9 µM (inactive) | 22.3 µM (inactive) | 41.6 µM (inactive) | 22.2 µM (inactive)
CC1(OCc2ccccc2)C(=O)N2C1N(C(=O)OCc1ccccc1)CC2(C)C (centres undefined) | 35.1 µM (inactive) | 94.6 µM (inactive) | 82.4 µM (inactive) | 67.8 µM (inactive) | – | 35.1 µM (inactive) | 42.6 µM (inactive) | > 100 µM (inactive) | 38.5 µM (inactive) | > 100 µM (inactive) | 69.3 µM (inactive) | 30.5 µM (inactive) | > 100 µM (inactive) | > 100 µM (inactive) | 49.3 µM (inactive) | 36.6 µM (inactive) | 31.4 µM (inactive)
O=C(CN1CCN(c2ccccc2)CC1)N1CCc2c([nH]c3ccccc23)C1c1cccnc1 (centres undefined) | > 100 µM (inactive) | > 100 µM (inactive) | 34.1 µM (inactive) | > 53.5 µM (inactive) | 97.3 µM (inactive) | 30.5 µM (inactive) | 36.9 µM (inactive) | 39.1 µM (inactive) | 23.7 µM (inactive) | > 95.3 µM (inactive) | > 100 µM (inactive) | > 100 µM (inactive) | > 66.8 µM (inactive) | > 29.4 µM (inactive) | 14.3 µM (inactive) | > 100 µM (inactive) | > 58.3 µM (inactive)
Cn1c(=O)ccc2cc(C(=O)c3ccccc3)ccc21 | 69.7 µM (inactive) | > 100 µM (inactive) | > 100 µM (inactive) | 46 µM (inactive) | > 100 µM (inactive) | 55 µM (inactive) | > 100 µM (inactive) | 76.6 µM (inactive) | 79.3 µM (inactive) | > 100 µM (inactive) | > 100 µM (inactive) | – | > 100 µM (inactive) | 35.2 µM (inactive) | 84.9 µM (inactive) | – | –
Cn1nc2ccc3nccc(NCCNCCO)c3c2n1 | > 100 µM (inactive) | 17.5 µM (inactive) | 47.4 µM (inactive) | 20.5 µM (inactive) | 35 µM (inactive) | 39.4 µM (inactive) | 18.1 µM (inactive) | 27.4 µM (inactive) | 39.3 µM (inactive) | 39.4 µM (inactive) | – | 10 µM (inactive) | 29.4 µM (inactive) | 45.8 µM (inactive) | 37 µM (inactive) | 27.3 µM (inactive) | 25.8 µM (inactive)
CC(=O)/C(=N\O)C(=O)NCc1ccccc1 | > 100 µM (inactive) | 58.9 µM (inactive) | > 100 µM (inactive) | > 100 µM (inactive) | > 100 µM (inactive) | > 100 µM (inactive) | 35.2 µM (inactive) | > 100 µM (inactive) | > 100 µM (inactive) | > 100 µM (inactive) | > 100 µM (inactive) | > 100 µM (inactive) | 15.9 µM (inactive) | > 100 µM (inactive) | > 100 µM (inactive) | > 100 µM (inactive) | > 100 µM (inactive)
Nc1nc(O)c2c(ncn2CC(O)CO)n1 (centres undefined) | > 100 µM (inactive) | > 100 µM (inactive) | > 100 µM (inactive) | > 100 µM (inactive) | > 100 µM (inactive) | – | > 100 µM (inactive) | > 100 µM (inactive) | > 100 µM (inactive) | > 100 µM (inactive) | > 100 µM (inactive) | > 100 µM (inactive) | > 100 µM (inactive) | > 100 µM (inactive) | > 100 µM (inactive) | > 100 µM (inactive) | > 100 µM (inactive)
c1ccc2c(c1)N=C(c1cccc3ccccc13)CC(c1ccc3c(c1)OCO3)S2 (centres undefined) | > 100 µM (inactive) | > 100 µM (inactive) | > 100 µM (inactive) | > 100 µM (inactive) | > 100 µM (inactive) | > 100 µM (inactive) | > 100 µM (inactive) | > 100 µM (inactive) | 53.6 µM (inactive) | > 10 µM (inactive) | > 100 µM (inactive) | > 100 µM (inactive) | > 100 µM (inactive) | > 100 µM (inactive) | 73.3 µM (inactive) | > 100 µM (inactive) | > 100 µM (inactive)
CCN(CC)C(=O)N1CCN(C=S)CC1 | > 100 µM (inactive) | > 100 µM (inactive) | > 100 µM (inactive) | > 100 µM (inactive) | > 100 µM (inactive) | > 100 µM (inactive) | > 100 µM (inactive) | > 100 µM (inactive) | – | > 100 µM (inactive) | > 100 µM (inactive) | > 100 µM (inactive) | > 100 µM (inactive) | > 100 µM (inactive) | > 100 µM (inactive) | > 100 µM (inactive) | > 100 µM (inactive)
[O-][S+](c1ccc(O)cc1)c1ccc(O)cc1 | > 100 µM (inactive) | > 100 µM (inactive) | > 100 µM (inactive) | > 100 µM (inactive) | > 100 µM (inactive) | > 100 µM (inactive) | > 100 µM (inactive) | > 100 µM (inactive) | > 100 µM (inactive) | > 100 µM (inactive) | > 100 µM (inactive) | – | > 100 µM (inactive) | > 100 µM (inactive) | > 100 µM (inactive) | > 100 µM (inactive) | > 100 µM (inactive)
CCCCCCCCCCSS(=O)(=O)c1ccc(C)cc1 | 2.24 µM (inactive) | 14.1 µM (inactive) | 19.9 µM (inactive) | 9.08 µM (inactive) | 9.64 µM (inactive) | 17.3 µM (inactive) | 8.13 µM (inactive) | 6.12 µM (inactive) | 6.58 µM (inactive) | 3.39 µM (inactive) | 5.01 µM (inactive) | 3.6 µM (inactive) | 14.3 µM (inactive) | 21 µM (inactive) | 4 µM (inactive) | 8.28 µM (inactive) | 15 µM (inactive)
CCOC(=O)C(C)(C)Oc1ccc2c(-c3ccc(Cl)cc3)c(-c3ccc(Cl)cc3)c(=O)oc2c1 | > 100 µM (inactive) | > 100 µM (inactive) | > 100 µM (inactive) | > 100 µM (inactive) | – | > 100 µM (inactive) | > 100 µM (inactive) | > 100 µM (inactive) | > 100 µM (inactive) | > 100 µM (inactive) | > 100 µM (inactive) | > 100 µM (inactive) | > 100 µM (inactive) | > 100 µM (inactive) | > 100 µM (inactive) | > 100 µM (inactive) | > 100 µM (inactive)
O=[N+]([O-])c1ccc(-c2ccc(C3=Nn4c(CNc5ccccc5Cl)nnc4SC3)o2)cc1 | – | > 100 µM (inactive) | > 100 µM (inactive) | > 100 µM (inactive) | > 100 µM (inactive) | 87.9 µM (inactive) | > 100 µM (inactive) | > 100 µM (inactive) | > 100 µM (inactive) | > 100 µM (inactive) | > 100 µM (inactive) | > 100 µM (inactive) | > 100 µM (inactive) | > 100 µM (inactive) | > 100 µM (inactive) | > 100 µM (inactive) | > 100 µM (inactive)
CN(C)CCNC(=O)c1cccc2c1nc(-c1ccc(F)cc1)c1ccccc12 | 1.97 µM (inactive) | 3.21 µM (inactive) | 1.22 µM (inactive) | 3.85 µM (inactive) | 5.93 µM (inactive) | 5.71 µM (inactive) | 0.417 µM (active) | 6.58 µM (inactive) | 6.05 µM (inactive) | 7.76 µM (inactive) | 10.3 µM (inactive) | – | 2.27 µM (inactive) | 4.03 µM (inactive) | 3.18 µM (inactive) | 2.95 µM (inactive) | 1.64 µM (inactive)
CC(=O)N1CCC2(C=Nc3ccccc32)CC1 | > 100 µM (inactive) | > 100 µM (inactive) | > 100 µM (inactive) | > 100 µM (inactive) | > 100 µM (inactive) | > 100 µM (inactive) | > 100 µM (inactive) | – | > 100 µM (inactive) | > 100 µM (inactive) | > 100 µM (inactive) | – | > 100 µM (inactive) | > 100 µM (inactive) | > 100 µM (inactive) | > 100 µM (inactive) | –
O=C(Cc1ccccc1)NN1C(=O)C(Cl)C1c1cccc(O)c1 (centres undefined) | 3.06 µM (inactive) | 18.4 µM (inactive) | 27.2 µM (inactive) | 16.7 µM (inactive) | – | 17.5 µM (inactive) | 15.3 µM (inactive) | 21.1 µM (inactive) | 16.7 µM (inactive) | 18.4 µM (inactive) | 27 µM (inactive) | 3.58 µM (inactive) | 5.2 µM (inactive) | 18.9 µM (inactive) | 11.9 µM (inactive) | 18.2 µM (inactive) | 15.9 µM (inactive)
